The test system of one data set is influenza A virus. The experiment in a line: Synergism of MEK inhibitor with Oseltamivir-carboxylate on A549 cells (combination index, CompuSyn). In kind it is cell-based.
For a further data set, the system named is FPV. The data set is classed as cell-based.
The subject of another data set is panH1N1 (RB1). In kind it is cell-based, influenza A virus.
Data set [1] concerns A/Mallard/Bavaria/01/2006 (MB1, H5N1). The data set is classed as cell-based, influenza A virus. As to conditions: MDCK II, MOI 0.001, 24 h treatment, FIG. 6/7.
The test system of another data set is colon carcinoma. As to conditions: oral administration, mouse model; cited from earlier work.
A further data set has as its system A/Anhui/1/2013 (H7N9). The experiment in a line: microbe, parasite or virus in culture. In kind it is cell-based, influenza A virus.
For data set [2] the following is noted: patients taking oseltamivir; cited from earlier work.
The mark [3] stands for this setting: with Oseltamivir-carboxylate, ratio 1:1, A549.
Where [4] appears, read: with Oseltamivir-carboxylate, ratio 1:10, A549.

Where “and” joins values, the source holds several entries; their conditions need not be identical. Equal entries are not always repeated. Where two headings read alike, the source gives them in different places.

Consider `Cn1cnc2c(F)c(Nc3ccc(Br)cc3Cl)c(C(=O)NOCCO)cc21` [AZD-6244], for which, in the data set on influenza A virus, the “CI value at ED75” value is 0.2086 and 0.1616; the “CI value at ED90” value was 0.2962 and 0.2330; the “CI value at ED95” value was 0.3760 and 0.2993.

As to `O=C(NOCC1CC1)c1ccc(F)c(F)c1Nc1ccc(I)cc1Cl` [CI-1040], the antiviral potency result with FPV is listed as “potent”. Moreover, the antiviral potency entry in the data set on panH1N1 (RB1) is “potent”. Moreover, the “antiviral potency in cell culture” value in data set [1] was “highly potent”. For the same compound, in the data set with influenza A virus (setting [3]), the “CI value at ED75” value amounted to 0.4010, the “CI value at ED90” value was 0.3987 and the “CI value at ED95” value is listed as 0.4412.

Take `CC(=O)Nc1cccc(-n2c(=O)n(C3CC3)c(=O)c3c(Nc4ccc(I)cc4F)n(C)c(=O)c(C)c32)c1` [GSK-1120212]: in the data set on influenza A virus, the “CI value at ED75” value stood at 0.4758, the “CI value at ED90” value amounted to 0.4648 and the “CI value at ED95” value is listed as 0.4576.

With `O=C(NOCC1CC1)c1ccc(F)c(F)c1Nc1ccc(I)cc1Cl` [PD184352, 2-(2-chloro-4-iodo-phenylamino)-N-cyclopropylmethoxy-3,4-difluoro-benzamide], the “growth of colon carcinoma” value in the data set with colon carcinoma is given as “efficiently inhibit”.

As for `O=C(NOC[C@H](O)CO)c1ccc(F)c(F)c1Nc1ccc(I)cc1F` [PD-0325901], the antiviral potency result in the data set with FPV and with panH1N1 (RB1) was “potent” throughout. Also, the “antiviral potency in cell culture” value in data set [1] is “highly potent”.

The term EC50 denotes the concentration at which the effect is half-maximal. As to `CCCS(=O)(=O)Nc1ccc(F)c(C(=O)c2c[nH]c3ncc(-c4ccc(Cl)cc4)cc23)c1F` [PLX-4032], the antiviral potency result with A/Anhui/1/2013 (H7N9) (A549, H7N9, FIGS. 13A and B) is listed as “highly potent”. Besides, a half-maximal effect in the data set with A/Anhui/1/2013 (H7N9) (Influenza A virus, H7N9, A549, 24 h) (EC50) was put at 12 µM. In addition, in the data set on influenza A virus (setting [3]), the “CI value at ED75” value amounted to 0.3472, the “CI value at ED90” value amounted to 0.4332 and the “CI value at ED95” value is on record as 0.5036. Further, in the data set on influenza A virus (setting [4]), the “CI value at ED75” value was determined as 0.2305, the “CI value at ED90” value is given as 0.2367 and the “CI value at ED95” value came to 0.2413.

For the compound oseltamivir, the “patients experiencing nausea and vomiting” value in data set [2] is listed as 10-15%.

Source of the values: patent US9566281B2 (Westfaelische Wilhelms-Universitaet, priority 2012, dated 2017).
